≈ marks a conversion by molar mass, not a printed value. Where two headings read alike, the source gives them in different places.
Key:
[1] = test system: CPT-K5 cells (camptothecin-resistant variant of RPMI 8402); test: MTT cytotoxicity assay, camptothecin-resistant CPT-K5; format: cell-based, human; conditions: for IC50: Homo sapiens, CPT-K5, 96 h, read-out: Cytotoxicity IC50, CPT-K5
Method: (§1) The cytotoxicity was determined using the as MTT-microtiter plate tetrazolinium cytotoxicity assay (MTA) following the procedures of F. Denizot et al., J. Immunol. […] The cytotoxicity assay was performed using 96-well microtiter plates. Cells were grown in suspension at 37° C. in 5% CO2 and maintained by regular passage in RPMI medium supplemented with 10% heat inactivated fetal bovine serum, L-glutamine (2 mM), penicillin (100 U/ml), and streptomycin (0.1 mg/ml). For determination of IC50, cells were exposed continuously with varying concentrations of drug concentrations and MTT assays were performed at the end of the fourth day.

[2] = test system: human lymphoblast RPMI 8402 cells; test: MTT cytotoxicity assay, RPMI 8402; format: cell-based; conditions: for IC50: Homo sapiens, RPMI 8402, 96 h, read-out: Cytotoxicity IC50, RPMI
Method: as §1

mammalian tumor cells = test: Cytotoxicity to tumor cells, general statement; format: cell-based; conditions: cell line not specified
[3] = target: T1, calf thymus topoisomerase I (Bos taurus, UniProt A0AAA9TV68); test: Topoisomerase I-mediated DNA cleavage assay (calf thymus topoisomerase I, plasmid YEpG); format: biochemical
T1 construct: plasmid YEpG DNA cleavage assay
T1 sequence (A0AAA9TV68 2-769): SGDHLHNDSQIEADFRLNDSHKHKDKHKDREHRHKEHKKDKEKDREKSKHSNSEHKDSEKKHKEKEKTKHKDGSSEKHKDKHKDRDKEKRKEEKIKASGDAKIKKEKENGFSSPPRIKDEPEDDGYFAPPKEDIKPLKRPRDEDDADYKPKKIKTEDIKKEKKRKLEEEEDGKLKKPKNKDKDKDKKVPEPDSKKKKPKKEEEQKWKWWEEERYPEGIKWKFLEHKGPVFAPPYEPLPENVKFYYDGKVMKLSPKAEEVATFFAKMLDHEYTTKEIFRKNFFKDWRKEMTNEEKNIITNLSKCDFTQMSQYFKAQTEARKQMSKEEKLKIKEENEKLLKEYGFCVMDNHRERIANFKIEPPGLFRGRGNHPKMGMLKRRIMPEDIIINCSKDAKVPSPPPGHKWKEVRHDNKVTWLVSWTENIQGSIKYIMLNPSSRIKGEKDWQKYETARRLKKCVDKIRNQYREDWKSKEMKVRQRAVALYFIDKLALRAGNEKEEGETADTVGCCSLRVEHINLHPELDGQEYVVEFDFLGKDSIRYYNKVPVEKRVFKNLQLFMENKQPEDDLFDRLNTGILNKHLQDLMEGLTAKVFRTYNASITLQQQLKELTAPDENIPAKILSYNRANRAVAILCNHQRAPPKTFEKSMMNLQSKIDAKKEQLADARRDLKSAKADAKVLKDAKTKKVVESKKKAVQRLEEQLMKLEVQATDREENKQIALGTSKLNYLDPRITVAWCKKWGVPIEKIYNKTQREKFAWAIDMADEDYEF
From the text: DNA topoisomerase I was purified from calf thymus gland as reported previously by B. D. Halligan et al., J. Biol. Chem., 260, 2475 (1985). Plasmid YEpG was also purified by the alkali lysis method followed by phenol deproteination and CsCl/ethidium isopycnic centrifugation as described by T. Mariatis et al., Molecular Cloning, A Laboratory Manual, Cold Spring Harbor Labs, NY (1982) at pages 149-185. The end-labeling of the plasmid was accomplished as previously described by L. F. Liu et al., J. Biol. Chem., 258, 15365 (1983). The cleavage assays were performed as previously reported by A. Y. Chen et al., Cancer Res., 53, 1332 (1993). Human topoisomerase was isolated as a recombinant fusion protein using a T7 expression system.
^b Topoisomerase I cleavage values are reported as REC, Relative
Effective Concentration, i.e. concentrations relative to Hoechst 33342,
whose value is arbitrarily assumed as 1, that are able to produce the sam
cleavage on the plasmid DNA in the presence of calf thymus topoisomerase
I. Cleavage is calculated from the intensity of the strongest Hoechst

[4] = test system: human ovarian tumor cell line, A2780; test: Cytotoxicity, ovarian tumor cell line A2780; format: cell-based
Method: (§2) The cytotoxicity was determined using the as MTT-microtiter plate tetrazolinium cytotoxicity assay (MTA) following the procedures of F. Denizot et al., J. Immunol. Methods, 89, 271 (1986); J. Carmichael et al., Cancer Res., 47, 936 (1987) and T. J. Mosmann et al., Immunol. Methods, 65, 55 (1983). The human lymphoblast RPMI 8402 and its camptothecin-resistant variant cell line, CPT-K5 were provided by Dr. Toshiwo Andoh (Aichi Cancer Center Research Institute, Nagoya, Japan). See, for example, T. Andoh et al., Adv. Pharmacol., 29B, 93 (1994). The cytotoxicity assay was performed using 96-well microtiter plates. Cells were grown in suspension at 37° C. in 5% CO2 and maintained by regular passage in RPMI medium supplemented with 10% heat inactivated fetal bovine serum, L-glutamine (2 mM), penicillin (100 U/ml), and streptomycin (0.1 mg/ml). For determination of IC50, cells were exposed continuously with varying concentrations of drug concentrations and MTT assays were performed at the end of the fourth day.

[5] = test system: CPT-2000, a variant of A2780; test: Cytotoxicity, camptothecin-resistant CPT-2000; format: cell-based; conditions: Homo sapiens
Method: as §2

[6] = test system: KBV-1 cells (multidrug-resistant variant of KB3-1, overexpress MDR1); test: MTT cytotoxicity assay, multidrug-resistant KBV-1; format: cell-based, human; conditions: for IC50: Homo sapiens, KB-V1, 96 h, read-out: Cytotoxicity IC50, KBV-1
Method: as §1
(§3) These cells were grown as monolayer cultures at in 5% CO2 and maintained by regular passage in Dulbecco's minimal essential medium supplemented with 10% heat inactivated fetal bovine serum. KBV-1 cells were similarly maintained except they were grown in the presence of 1 μg/ml vinblastine.

[7] = test system: human MDR1 (P-glycoprotein); test: Substrate of human MDR1 (P-glycoprotein), from cytotoxicity in KB 3-1 and KB V-1 cells; format: cell-based; conditions: concluded from KB 3-1 / KB V-1 IC50 values
Method: The drug sensitive human epidermoid carcinoma KB3-1 cell line (S. Aliyama et al., Somatic Cell Mol. Genet, 11, 117 (1985)) and its vinblastine-selected multidrug-resistant variant KBV-1 cells (D. W. Shen et al., Science, 32, 643 (1986)) were provided by Dr. Michael Gottesmann (National Cancer Institute, Bethesda, ML). These cells were grown as monolayer cultures at in 5% CO2 and maintained by regular passage in Dulbecco's minimal essential medium supplemented with 10% heat inactivated fetal bovine serum. KBV-1 cells were similarly maintained except they were grown in the presence of 1 μg/ml vinblastine.
The cytotoxic activity of Hoechst 33342 and 13 was also evaluated against KB 3-1 and KB V-1 cells. The primary difference between these cell lines is in the degree to which human MDR1 (P-glycoprotein) is expressed. […] Pharmacol., 245, 29B (1994).

[8] = test system: human epidermoid carcinoma KB3-1 cell line; test: MTT cytotoxicity assay, KB3-1; format: cell-based; conditions: KB 3-1, 96 h, 4 days continuous drug exposure
Method: as §1, §3

fungi = test: Antifungal activity
[9] = test system: CPT-K5 cells (camptothecin-resistant variant of RPMI 8402); conditions: as reported by A. Y. Chen et al., Cancer Res., 53, 1332 (1993); cited from earlier work
[10] = 4 days continuous drug exposure

c1ccc2[nH]c(-c3ccc4[nH]c(-c5ccc6[nH]cnc6c5)nc4c3)nc2c1 [Compound 10, 2-[2'-(Benzimidazol-5"-yl)benzimidazol-5'-yl]benzimidazole]
IC50 [1]: 28000 nM
Cytotoxicity towards RPMI 8402 (in words) [2]: failed to exhibit significant cytotoxicity
IC50 [2]: 14000 nM

N#Cc1ccc2[nH]c(-c3ccc4[nH]c(-c5ccc6[nH]cnc6c5)nc4c3)nc2c1 [Compound 11, 5-Cyano-2-[2'-(benzimidazol-5"-yl)benzimidazol-5'-yl]benzimidazole]
IC50 [1, 10]: > 25000 nM
Cytotoxicity towards RPMI 8402 (in words) [2]: failed to exhibit significant cytotoxicity
IC50 [2, 10]: > 25000 nM

CCCc1ccc2nc(-c3ccc4nc(-c5ccc6nc[nH]c6c5)[nH]c4c3)[nH]c2c1 [Compound 12, 5-Propyl-2-[2'-(benzimidazol-5"-yl)benzimidazol-5'-yl]benzimidazole]
Cytotoxicity to tumor cells (in words) (mammalian tumor cells): weak cytotoxicity
IC50 [1, 10]: 20000 nM
IC50 [2, 10]: 7600 nM
Potency as topoisomerase I inhibitor (in words) [3]: much less active than either 10, 11, or 13 as an inhibitor of topoisomerase I

c1ccc(-c2ccc3nc(-c4ccc5nc(-c6ccc7nc[nH]c7c6)[nH]c5c4)[nH]c3c2)cc1 [Compound 13, 5-Phenyl-2-[2'(benzimidazol-5"-yl)benzimidazol-5'-yl]benzimidazole]
Cytotoxicity against CPT-K5 cells (in words) [1]: effective against camptothecin-resistant CPT-K5 cells
Relative resistance (ratio of IC50 values of resistant versus drug sensitive cell line) ([1]; CPT-K5 versus RPMI 8402, 5760 min): approximately 30 fold
IC50 [1]: 580 nM
IC50 [4]: 0.015 µg/mL (≈ 0.0352 µM)
IC50 [5]: 0.03 µg/mL (≈ 0.0703 µM)
IC50 [6]: 350 nM
Difference of cytotoxicity between KB 3-1 and KB V-1 cells (in words) ([6]; KB 3-1 versus KB V-1): little difference between the IC50 values
Substrate for human MDR1 (in words) [7]: appears not to be a substrate for human MDR1
Cytotoxicity towards RPMI 8402 (in words) [2]: significant cytotoxicity
IC50 [2, 10]: 90 nM
Potency as topoisomerase I inhibitor (in words) [3]: approximately one-half as potent as Hoechst 33342 as a topoisomerase I inhibitor

c1ccc(-c2ccc3nc(-c4ccc5nc(-c6ccc7nc[nH]c7c6)[nH]c5c4)[nH]c3c2)nc1 [Compound 14, 5-(2-Pyridyl)-2-[2'-(benzimidazol-5"-yl)benzimidazol-5'-yl]benzimidazole]
IC50 [8]: 50 nM
IC50 [1]: 5800 nM
Antifungal activity (in words) (fungi): exhibits antifungal activity
IC50 [6, 10]: 90 nM
IC50 [2, 10]: 160 nM

c1cncc(-c2ccc3nc(-c4ccc5nc(-c6ccc7nc[nH]c7c6)[nH]c5c4)[nH]c3c2)c1 [Compound 15, 5-(3-Pyridyl)-2-[2'-(benzimidazol-5"-yl)benzimidazol-5'-yl]benzimidazole]
IC50 [8]: 20 nM
Cytotoxicity to tumor cells (in words) (mammalian tumor cells): somewhat more active than the 2-pyridyl derivative, 14, as topoisomerase I inhibitors as well as cytotoxic agents
IC50 [1]: 2500 nM
IC50 [6, 10]: 20 nM
IC50 [2, 10]: 35 nM
Potency as topoisomerase I inhibitor (in words) [3]: somewhat more active than the 2-pyridyl derivative, 14, as topoisomerase I inhibitors

c1cc(-c2ccc3nc(-c4ccc5nc(-c6ccc7nc[nH]c7c6)[nH]c5c4)[nH]c3c2)ccn1 [Compound 16, 5-(4-Pyridyl)-2-[2'-(benzimidazol-5"-yl)benzimidazol-5'-yl]benzimidazole]
IC50 [8]: 20 nM
Cytotoxicity to tumor cells (in words) (mammalian tumor cells): somewhat more active than the 2-pyridyl derivative, 14, as topoisomerase I inhibitors as well as cytotoxic agents
IC50 [1]: 2500 nM
IC50 [6, 10]: 10 nM
IC50 [2, 10]: 35 nM
Potency as topoisomerase I inhibitor (in words) [3]: somewhat more active than the 2-pyridyl derivative, 14, as topoisomerase I inhibitors

N#Cc1ccc2nc(-c3ccc4nc[nH]c4c3)[nH]c2c1 [Compound 19, 5-Cyano-2-(benzimidazol-5'-yl)benzimidazole]
IC50 [2, 10]: > 25000 nM

Brc1ccc2nc(-c3ccc4nc(-c5ccc6nc[nH]c6c5)[nH]c4c3)[nH]c2c1 [JSKIV-37, 5-Bromo-2-[2'-(benzimidazol-5"-yl)benzimidazol-5'-yl]-benzimidazole]
IC50 [1]: 1400 nM

Clc1ccc(-c2ccc3nc(-c4ccc5nc(-c6ccc7nc[nH]c7c6)[nH]c5c4)[nH]c3c2)cc1 [JSKIV-47, 5-(p-Chlorophenyl)-2-[2'-(benzimidazol-5"-yl)benzimidazol-5'-yl]-benzimidazole]
IC50 [1, 10]: 200 nM
IC50 [2, 10]: 90 nM

Clc1ccc2nc(-c3ccc4nc(-c5ccc6nc[nH]c6c5)[nH]c4c3)[nH]c2c1 [JSKIV-68, 5-Chloro-2-[2'-(benzimidazol-5"-yl)benzimidazol-5'-yl]-benzimidazole]
IC50 [1]: 650 nM
IC50 [2, 10]: 1040 nM

CC[C@@]1(O)C(=O)OCc2c1cc1n(c2=O)Cc2cc3ccccc3nc2-1 [camptothecin]
Relative resistance of camptothecin (ratio of IC50 values of resistant versus drug sensitive cell line) [9]: 2,500 fold

Source: patent publication US5767142A, “Trisbenzimidazoles useful as topoisomerase I inhibitors” (Rutgers, The State University of New Jersey, priority 1996, dated 1998)
